Measurements: PMC10385865, “Synthesis and Anticancer Activity of Novel Dual Inhibitors of Human Protein Kinases CK2 and PIM-1” (Pharmaceutics, 2023)
Read-outs that look alike come from different tables or passages of the source.

Experiments:
[1] = system: K-562 (chronic myelogenous leukemia); assay: MTT-based viability assay, K-562; assay type: cell-based, human; settings: for IC50: Homo sapiens, read-out: IC50 K-562
Description: (§1) After incubation with the tested compounds, an MTT test was performed as described previously. Optical densities were measured at 570 nm using a BioTek microplate reader (BioTek Instruments, Inc., Winooski, VT, USA). All measurements were carried out in a minimum of three biological replicates.
(§2) . The IC50 values describing the half-maximal effective concentration of each tested compound were calculated and are summarized in Table 2. […].

MCF-7 cells [2] = assay: Annexin V/propidium iodide apoptosis, flow cytometry, MCF-7; settings: for viability at 5 µM / viability at 10 µM: Homo sapiens, MCF7, 48 h, read-out: Viable; for Early apoptosis / Late apoptosis / Necrosis: mean±SD
Description: MCF-7 cells were seeded in 6-well plates at 1.2 × 10^5 cells/well, whereas CCRF-CEM and K-562 cells were seeded in 24-well plates at a density of 2 × 10^5/mL. Cells were treated with the tested compounds used in 5 µM and 10 µM concentrations. Then, the plates were incubated for 48 h. After exposure to the examined compounds, the cells were collected and centrifugated at 200× g at 4 °C for 5 min, washed twice in cold phosphate-buffered saline (PBS), and subsequently suspended in binding buffer at 1 × 10^6 cells/mL. Subsequently, 100-μL aliquots of the cell suspension were labeled according to the instructions of the respective manufacturer’s kit. Briefly, annexin V-fluorescein isothiocyanate and propidium iodide (BD Biosciences, Pharmingen, San Diego, CA, USA) were added to the cell suspension, and the mixture was vortexed, then incubated for 15 min at RT in the dark. A cold binding buffer (400 μL) was then added, and the cells were vortexed again and kept on ice. Flow cytometric measurements were performed within 1 h after labeling. Viable, necrotic, early, and late apoptotic cells were detected by flow cytometry using a BD FACSCanto II flow cytometer and analyzed using BD FACSDiva operating software (BD Biosciences, San Jose, CA, USA).

MCF-7 cells [3] = assay: Cell cycle progression by flow cytometry (PI), MCF-7; assay type: cell-based, human; settings: MCF-7, 48 h
Description: (§3) MCF-7, CCRF-CEM, and K-562 cells were cultured in 6-well plates and treated with the tested compounds for 48 h. After exposure to the compounds, the cells were collected and washed with cold PBS and fixed at −20 °C in 70% ethanol for at least 24 h. Subsequently, cells were washed in PBS and stained with 50 μg/mL PI (propidium iodide) and 100 μg/mL RNase solution in PBS supplemented with 0.1% v/v Triton X-100 for 30 min in the dark at RT. Cellular DNA content was determined by flow cytometry employing a BD FACSCanto II flow cytometer (BD Biosciences, San Jose, CA, USA). The obtained DNA histograms were analyzed using MacCycle software (Phoenix Flow Systems, San Diego, CA, USA) for evaluation of the distribution of the cells in different phases of the cell cycle.
(§4) Since CK2 controls cell cycle progression and, consequently, its inhibition can affect the distribution of cells in the individual phases of the cell cycle, we tested the cell cycle progression in CCRF-CEM, K-562, and MCF-7 cells after treatment with 4 and rac-6. Representative plots DNA histograms with the calculations of cell percentages in each phase of the cell cycle are depicted in Figure 7. […] Accumulation of cells in sub-G1 indicates DNA degradation, as often seen in apoptotic cells, confirming the results obtained with annexin V and PI staining.

PIM-1 = biological target: T1, PIM-1 (Homo sapiens, UniProt P11309); assay: P81 filter isotopic (radiometric) kinase assay, PIM-1; assay type: biochemical; settings: substrate peptide […], Ki from IC50 by Cheng–Prusoff
T1 construct: made in house
Description: The obtained compounds were tested for their inhibitory activity toward human CK2α, human CK2 holoenzyme, and PIM-1 using a P81 filter isotopic assay as described previously. […] The experimental data were fitted to the sigmoidal dose–response equation, i.e., (variable slope) Y = Bottom + (Top-Bottom)/(1 + 10^((LogIC50−X)∗HillSlope), in GraphPad Prism (Prism 9, v. 9.0.1).
Inhibition of the human CK2 catalytic subunit (CK2α), CK2 holoenzyme (CK2α2β2), and PIM-1 by the newly obtained compounds was evaluated using a radiometric assay (Table 1, Figure S2). The synthetic peptide […] was used as the substrate of CK2, and peptide […] was used as the substrate of PIM-1. The values of the inhibition constant (Ki) were calculated using the Cheng–Prusoff equation: Ki = IC50/(1 + [S]/Km).

K-562 cells = assay: Cell cycle progression by flow cytometry (PI), K-562; assay type: cell-based, human; settings: for K-562 cells in S phase (maximum): K-562, 15 µM, 48 h; for cell cycle arrest (phase, in words): K-562, 48 h
Description: as §3, §4

MCF-7 (breast carcinoma) = assay: MTT-based viability assay, MCF-7; assay type: cell-based, human; settings: for IC50: Homo sapiens, read-out: IC50 MCF-7
Description: as §1, §2

T1 sequence (P11309 whole entry): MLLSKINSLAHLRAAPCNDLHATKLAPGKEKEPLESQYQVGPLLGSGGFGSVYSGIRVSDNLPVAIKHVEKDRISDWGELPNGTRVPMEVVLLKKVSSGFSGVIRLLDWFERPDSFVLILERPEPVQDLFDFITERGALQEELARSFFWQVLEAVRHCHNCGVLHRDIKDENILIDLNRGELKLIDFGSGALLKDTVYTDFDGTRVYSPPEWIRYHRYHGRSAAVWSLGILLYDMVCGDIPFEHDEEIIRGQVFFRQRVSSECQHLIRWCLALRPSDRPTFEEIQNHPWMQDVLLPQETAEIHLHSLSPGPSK

Row | SMILES | IC50 ([1]; K562, MTT, 48 h) | SI (selectivity index) K-562 ([1]; IC50 Vero/IC50 cancer cells) | viability at 5 µM (MCF-7 cells [2]) | viability at 10 µM (MCF-7 cells [2]) | Early apoptosis (MCF-7 cells [2]; MCF-7, 5 µM, 48 h) | Late apoptosis (MCF-7 cells [2]; MCF-7, 5 µM, 48 h) | Necrosis (MCF-7 cells [2]; MCF-7, 5 µM, 48 h) | Early apoptosis (MCF-7 cells [2]; MCF-7, 10 µM, 48 h) | Late apoptosis (MCF-7 cells [2]; MCF-7, 10 µM, 48 h) | Necrosis (MCF-7 cells [2]; MCF-7, 10 µM, 48 h) | induction of apoptosis (in words) (MCF-7 cells [2]; MCF-7, 10 µM, 48 h, statistically significant result) | cell cycle arrest (phase, in words) (MCF-7 cells [3]) | Ki (PIM-1) | K-562 cells in S phase (maximum) (K-562 cells) | cell cycle arrest (phase, in words) (K-562 cells) | IC50 (MCF-7 (breast carcinoma); MCF7, MTT, 48 h) | SI (selectivity index) MCF-7 (MCF-7 (breast carcinoma); IC50 Vero/IC50 cancer cells) | IC50 ([1]; K562, 48 h) | IC50 (MCF-7 (breast carcinoma); MCF7, 48 h)
1 | OC(CNc1nc2c(Br)c(Br)c(Br)c(Br)c2[nH]1)C(F)(F)F (racemic) [rac-6, 1,1,1-Trifluoro-3-[(4,5,6,7-tetrabromo-1H-benzimidazol-2-yl)amino]propan-2-ol] | 17.7 ± 3.54 µM | 1.15 | 79 ± 1.94% | 69.1 ± 13.1% | 1.18±1.08% | 10.96±1.63% | 8.94±1.14% | 3.53±5.45% | 19.05±7.40% | 8.28±1.69% | induced apoptosis | G1-phase arrest | 0.067 µM | 56.1% | S-phase arrest | 9.66 ± 0.31 µM | 2.11 | – | –
2 | CN(C)c1nc2c(Br)c(Br)c(Br)c(Br)c2[nH]1 [Compound 4, 4,5,6,7-Tetrabromo-N,N-dimethyl-1H-benzimidazol-2-amine, reference compound] | – | – | 79 ± 2.76% | 70.3 ± 3.36% | 0.98±0.62% | 8.44±1.47% | 11.62±2.01% | 1.80±1.31% | 15.94±3.58% | 11.96±2.46% | – | S-phase arrest | 0.052 µM | 57.7% | S-phase arrest | – | – | 22.5 ± 6.09 µM | 14.7 ± 0.27 µM
